Experimental data reported in PMC8284926 (Journal of the American Chemical Society, 2021).

What was measured:
[1] = tested on: MEFs lacking Pol β (Pol β −/−); assay: Cytotoxicity in Pol β null mouse embryonic fibroblasts; assay type: cell-based; details: MMS alone
[2] = target: DNA polymerase β (Pol β) (Homo sapiens, UniProt P06746); details: cited from earlier work

SMILES | cytotoxicity relative to wild type MEFs [1] | selectivity for Pol β over Pol λ [2]
COS(C)(=O)=O [MMS, methylmethanesulfonate] | considerably more toxic | –
C=CCc1ccc(O)c(-c2ccc(O)c(CC=C)c2)c1 [honokiol] | – | not selective for Pol β over Pol λ
